± gives the standard deviation of the averaged measurements.
Tested on: HeLa
Assay: cell viability (CellTiter-Glo) relative to median of lowest-dilution wells of all drugs (fraction); higher = more viable cells
Experimental: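 HeLa control and CRISPR DDX11 knockout cells were seeded in 384-well plates and incubated for 72 h with each of 64 […] drugs at six concentrations. Viability was read with CellTiter-Glo and normalised to the median of the lowest (6th) dilution wells of all drugs. Two biological replicates (BR1, BR2) are averaged; the concentration unit is not stated.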

[1] = drug concentration (unit not stated): 0.04, genotype: DDX11 knockout
[2] = drug concentration (unit not stated): 0.04, genotype: control (DDX11 wild type)
[3] = drug concentration (unit not stated): 0.12, genotype: DDX11 knockout
[4] = drug concentration (unit not stated): 0.12, genotype: control (DDX11 wild type)
[5] = drug concentration (unit not stated): 0.37, genotype: DDX11 knockout
[6] = drug concentration (unit not stated): 0.37, genotype: control (DDX11 wild type)
[7] = drug concentration (unit not stated): 1.11, genotype: DDX11 knockout
[8] = drug concentration (unit not stated): 1.11, genotype: control (DDX11 wild type)
[9] = drug concentration (unit not stated): 3.33, genotype: DDX11 knockout
[10] = drug concentration (unit not stated): 3.33, genotype: control (DDX11 wild type)
[11] = drug concentration (unit not stated): 10, genotype: DDX11 knockout
[12] = drug concentration (unit not stated): 10, genotype: control (DDX11 wild type)
[13] = drug concentration (unit not stated): 0.01, genotype: DDX11 knockout
[14] = drug concentration (unit not stated): 0.01, genotype: control (DDX11 wild type)
[15] = drug concentration (unit not stated): 30, genotype: DDX11 knockout
[16] = drug concentration (unit not stated): 30, genotype: control (DDX11 wild type)

| Compound | cell viability [1] | cell viability [2] | cell viability [3] | cell viability [4] | cell viability [5] | cell viability [6] | cell viability [7] | cell viability [8] | cell viability [9] | cell viability [10] | cell viability [11] | cell viability [12] | cell viability [13] | cell viability [14] | cell viability [15] | cell viability [16] |
| --- | --- | --- | --- | --- | --- | --- | --- | --- | --- | --- | --- | --- | --- | --- | --- | --- |
| O=C(c1cc(Cc2n[nH]c(=O)c3ccccc23)ccc1F)N1CCN(C(=O)C2CC2)CC1 [Olaparib] | 1.072 ± 0.0052 | 1.02 ± 0.032 | 1.02 ± 0.024 | 1.04 ± 0.043 | 0.953 ± 0.063 | 0.959 ± 0.036 | 0.954 ± 0.037 | 0.967 ± 0.035 | 0.796 ± 0.076 | 0.987 ± 0.011 | 0.677 ± 0.083 | 1.01 ± 0.066 |  |  |  |  |
| C[C@@]1(CO)[C@H](O)CC[C@@]2(C)[C@H]1CC[C@H]1C[C@@H]3C[C@@]12CC[C@]3(O)CO [Aphidicolin] | 1.02 ± 0.036 | 1.06 ± 0.031 | 1.06 ± 0.089 | 1.08 ± 0.11 | 0.91 ± 0.027 | 1.06 ± 0.24 | 0.58 ± 0.046 | 0.79 ± 0.27 | 0.428 ± 0.045 | 0.523 ± 0.16 | 0.182 ± 0.027 | 0.23 ± 0.13 |  |  |  |  |
| Nc1nc(Cl)nc2c1ncn2[C@H]1C[C@H](O)[C@@H](CO)O1 [Cladribine] | 1.04 ± 0.035 | 1.04 ± 0.052 | 1.09 ± 0.077 | 1.2 ± 0.25 | 0.935 ± 0.024 | 1.06 ± 0.25 | 0.487 ± 0.34 | 0.468 ± 0.15 | 0.135 ± 0.12 | 0.103 ± 0.056 |  |  | 0.96 ± 0.03 | 0.977 ± 0.015 |  |  |
| Nc1ncn([C@@H]2O[C@H](CO)[C@@H](O)[C@H]2O)c(=O)n1 [Azacitidine] | 1.03 ± 0.04 | 1.03 ± 0.044 | 1.03 ± 0.019 | 1.04 ± 0.0078 | 1.01 ± 0.046 | 1.05 ± 0.021 | 1.0191 ± 0.00066 | 1.05 ± 0.013 | 1.05 ± 0.063 | 1.03 ± 0.028 | 0.872 ± 0.12 | 0.89 ± 0.28 |  |  |  |  |
| O=c1cc(-c2cccc3c2Sc2ccccc2S3)oc(N2CCOCC2)c1 |  |  | 1.06 ± 0.039 | 0.988 ± 0.017 | 1.03 ± 0.027 | 1.01 ± 0.065 | 0.9944 ± 0.005 | 0.9715 ± 0.0052 | 0.963 ± 0.023 | 0.998 ± 0.064 | 0.843 ± 0.048 | 0.951 ± 0.17 |  |  | 0.633 ± 0.053 | 0.854 ± 0.38 |
| CC(=O)c1c(C)c2cnc(Nc3ccc(N4CCNCC4)cn3)nc2n(C2CCCC2)c1=O [Palbociclib] |  |  | 1.02 ± 0.084 | 1.017 ± 0.00052 | 1.0721 ± 0.001 | 1.01 ± 0.017 | 1.009 ± 0.0063 | 1.02 ± 0.025 | 1.03 ± 0.054 | 1.01 ± 0.022 | 0.9 ± 0.0099 | 0.986 ± 0.11 |  |  | 0.658 ± 0.045 | 0.893 ± 0.26 |
| Nc1cc(C(F)(F)F)c(-c2cc(N3CCOCC3)nc(N3CCOCC3)n2)cn1 [Buparlisib (BKM-120)] | 1.01 ± 0.023 | 1.01 ± 0.039 | 0.963 ± 0.035 | 0.999 ± 0.046 | 0.881 ± 0.18 | 0.92 ± 0.2 | 0.625 ± 0.13 | 0.772 ± 0.3 | 0.248 ± 0.08 | 0.247 ± 0.11 | 0.045 ± 0.0024 | 0.0382 ± 0.001 |  |  |  |  |
| CC(=O)O[C@H]1C(=O)[C@@]2(C)[C@H]([C@H](OC(=O)c3ccccc3)[C@]3(O)C[C@H](OC(=O)[C@H](O)[C@@H](NC(=O)c4ccccc4)c4ccccc4)C(C)=C1C3(C)C)[C@]1(OC(C)=O)CO[C@@H]1C[C@@H]2O [Paclitaxel (Taxol)] | 0.26 ± 0.017 | 0.379 ± 0.11 | 0.203 ± 0.0074 | 0.148 ± 0.021 | 0.2001 ± 0.00037 | 0.169 ± 0.016 | 0.197 ± 0.031 | 0.2 ± 0.042 | 0.179 ± 0.033 | 0.139 ± 0.0065 |  |  | 0.44 ± 0.12 | 0.515 ± 0.11 |  |  |

— the supplement of paper PMC8092582
